For series [1], the target named is Human immunodeficiency virus type 1 integrase (Human immunodeficiency virus 1, UniProt Q7ZJM1). Nature of the series: Inhibition of recombinant HIV-1 integrase by strand-transfer assay.
In series [2] the test system is Human immunodeficiency virus. Nature of the series: Antiviral activity against pseudotyped HIV by luciferase reporter gene assay. Conditions: Human immunodeficiency virus 1; call rule not given here. It counts as functional, organism-based.
Series [3] concerns Human immunodeficiency virus. Nature of the series: Antiviral activity against pseudotyped HIV by luciferase reporter gene assay in presence of human serum albumin. It counts as functional, organism-based. Conditions: Human immunodeficiency virus 1.
In series [4] the test system is Human immunodeficiency virus. Nature of the series: Antiviral activity against HIV infected in PBMC. It counts as functional, organism-based. The following applies: Human immunodeficiency virus 1.
For series [5], the system named is Human immunodeficiency virus. Nature of the series: Ratio of IC50 for pseudotyped HIV by luciferase reporter gene assay in presence of human serum albumin to IC50 for pseudotyped HIV by luciferase reporter gene assay. Format: functional. A general note: In a reporter assay the amount or activity of a reporter protein is the signal.
Series [6] deals with Human immunodeficiency virus. Nature of the series: Antiviral activity against HIV infected in PBMC assessed as protein-adjusted compound concentration. Format: functional, organism-based. The following applies: Human immunodeficiency virus 1.
Series [7] in a line: Inhibition of CYP450 (unknown origin) up to 33 uM. It counts as ADME. Conditions: human.
The nature of series [8]: Half life in rat at 1 mg/kg, iv as bolus dose. Also on record: dose 1 mg/kg, route intravenous. The following applies: in vivo. It counts as ADME, organism-based.
A short description of series [9]: Half life in dog at 1 mg/kg, iv as bolus dose. It counts as ADME, organism-based, Canis lupus familiaris. Also on record: dose 1 mg/kg, route intravenous. Conditions: in vivo.
Series [10] in a line: Half life in cynomolgus monkey at 1 mg/kg, iv as bolus dose. Format: ADME, organism-based, Macaca fascicularis. Further details: dose 1 mg/kg, route intravenous. Conditions: in vivo.
Series [11] in a line: Oral bioavailability in rat at 5 mg/kg. It counts as ADME, organism-based. Conditions: in vivo.
Series [12] in a line: Oral bioavailability in dog at 5 mg/kg. The following applies: in vivo. Format: ADME, organism-based, Canis lupus familiaris.
Series [13] is described as follows: Oral bioavailability in cynomolgus monkey at 5 mg/kg. Format: ADME, organism-based, Macaca fascicularis. Conditions: in vivo.
The nature of series [14]: Ratio of plasma concentration in rat at 5 mg/kg, po to IC90 for HIV infected in PBMC assessed as protein-adjusted compound concentration. It counts as ADME, organism-based. Also on record: dose 5 mg/kg, route oral. The following applies: in vivo.
A short description of series [15]: Ratio of plasma concentration in dog at 5 mg/kg, po to IC90 for HIV infected in PBMC assessed as protein-adjusted compound concentration. It counts as ADME, organism-based. The following applies: in vivo. Further details: dose 5 mg/kg, route oral.
Series [16] can be described thus: Ratio of plasma concentration in cynomolgus monkey at 5 mg/kg, po to IC90 for HIV infected in PBMC assessed as protein-adjusted compound concentration. Further details: dose 5 mg/kg, route oral. It counts as ADME, organism-based. The following applies: in vivo.
Series [17] in a line: Plasma clearance in rat at 1 mg/kg, iv.
A short description of series [18]: Plasma clearance in dog at 1 mg/kg, iv.
A short description of series [19]: Plasma clearance in cynomolgus monkey at 1 mg/kg, iv.

The results in this text go back to ChEMBL document CHEMBL3352021, “Naphthyridinone (NTD) integrase inhibitors 4. Investigating N1 acetamide substituent effects with C3 amide groups” (Bioorg Med Chem Lett, 2014).

By IC50 is commonly meant the concentration needed to halve the response being measured. The term IC90 denotes the concentration at which the effect reaches the 90% level. As usually defined, the half-life is how long it takes for the measured level to halve. For orientation: bioavailability means dose-corrected exposure relative to a reference, in per cent. One may read the clearance as the rate of elimination divided by the concentration.

Sequence of Human immunodeficiency virus type 1 integrase (Q7ZJM1 whole entry): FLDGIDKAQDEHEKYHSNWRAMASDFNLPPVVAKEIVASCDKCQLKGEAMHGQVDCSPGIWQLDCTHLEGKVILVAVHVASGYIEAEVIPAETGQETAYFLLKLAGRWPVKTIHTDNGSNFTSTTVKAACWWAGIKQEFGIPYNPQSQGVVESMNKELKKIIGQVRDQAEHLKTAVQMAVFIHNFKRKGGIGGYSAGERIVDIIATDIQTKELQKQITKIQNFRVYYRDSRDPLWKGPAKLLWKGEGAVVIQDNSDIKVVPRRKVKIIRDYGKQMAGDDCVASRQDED

Take `CCNC(=O)Cn1c(=O)c(C(=O)NC)c(O)c2ncc(Cc3ccc(F)cc3)cc21`: the results for the half-inhibitory concentration (IC50) in series [1], in series [2] and in [3] were 8.2 nM, 2.9 nM and 11 nM, respectively.
The like results for `CNC(=O)c1c(O)c2ncc(Cc3ccc(F)cc3)cc2n(CC(N)=O)c1=O` were, in that order, 7.6 nM, 2.2 nM and 56 nM.
The matching figures for `CNC(=O)Cn1c(=O)c(C(=O)NC)c(O)c2ncc(Cc3ccc(F)cc3)cc21`: 9.3 nM, 3.3 nM and 22 nM.
Turning to `CNC(=O)c1c(O)c2ncc(Cc3ccc(F)cc3)cc2n(CC(=O)N(C)C)c1=O`, the half-maximal inhibitory concentration (IC50) came out at 9.3 nM in [1]; 5.9 nM in series [2]; 19 nM in [3]; 4.2 nM in series [4]; 14 nM in series [6]. For the same compound, the “Ratio IC50” value in series [5] was 3.3. Moreover, the IC90 in [6] is 55 nM. Further, in series [7], the “inhibition (INH)” value is “Not Active”. Also, the results for the half-life in series [8], in [9] and in series [10] were 13.8 h, 1.3 h and 5 h, respectively. Besides, the bioavailability in series [11] is 69%; in series [12], 75%; in [13], 60%. The Ratio came out at 2.4 in [14], 0.1 in [15] and 0.7 in series [16]. In addition, the figures for the clearance in series [17], in [18] and in [19] were 0.7 mL/min/kg, 10.9 mL/min/kg and 6.3 mL/min/kg, respectively.
Regarding `CCN(CC)C(=O)Cn1c(=O)c(C(=O)NC)c(O)c2ncc(Cc3ccc(F)cc3)cc21`, the IC50 came to 4.4 nM in [1], 9.2 nM in [2] and 17 nM in [3].
Regarding `CNC(=O)c1c(O)c2ncc(Cc3ccc(F)cc3)cc2n(CC(=O)N2CCCC2)c1=O`, the IC50 was 13 nM in series [1], 4.9 nM in series [2] and 16 nM in series [3].
For the compound `CCCNC(=O)Cn1c(=O)c(C(=O)NC)c(O)c2ncc(Cc3ccc(F)cc3)cc21`, the concentration for half-maximal inhibition (IC50) was found to be 9.2 nM in [1], 5.5 nM in [2] and 14 nM in series [3].
For the compound `CNC(=O)c1c(O)c2ncc(Cc3ccc(F)cc3)cc2n(CC(=O)NC(C)C)c1=O`, the IC50 in series [1] came to 7.8 nM; in series [2], 3.2 nM; in [3] it was 12 nM.
The matching figures for `CNC(=O)c1c(O)c2ncc(Cc3ccc(F)cc3)cc2n(CC(=O)NC2CC2)c1=O`: 4.4 nM, 2.6 nM and 7.6 nM.
With `CNC(=O)c1c(O)c2ncc(Cc3ccc(F)cc3)cc2n(CC(=O)NC(C)(C)C)c1=O`, the IC50 is 6.9 nM in series [1], 4.8 nM in [2] and 16 nM in series [3].
In the case of `CNC(=O)c1c(O)c2ncc(Cc3ccc(F)cc3)cc2n(CC(=O)NCC2CC2)c1=O`, the values for the concentration for half-maximal inhibition (IC50) in series [1], in series [2] and in [3] were 8 nM, 5.9 nM and 33 nM, respectively.
The like results for `CNC(=O)c1c(O)c2ncc(Cc3ccc(F)cc3)cc2n(CC(=O)NCC(F)(F)F)c1=O` were, in that order, 7.1 nM, 1.5 nM and 15 nM.
The like results for `CNC(=O)c1c(O)c2ncc(Cc3ccc(F)cc3)cc2n(CC(=O)NCCOC)c1=O` were, in that order, 6.8 nM, 3.7 nM and 91 nM.
The matching figures for `CNC(=O)c1c(O)c2ncc(Cc3ccc(F)cc3)cc2n(CC(=O)NCCN(C)C)c1=O`: 22 nM, 42 nM and 83 nM.
For `CNC(=O)c1c(O)c2ncc(Cc3ccc(F)cc3)cc2n(CC(=O)NOC)c1=O`, the values for the IC50 in [1], in [2] and in series [3] were 5.7 nM, 3.3 nM and 13 nM, respectively.
The matching figures for `CN(C)C(=O)Cn1c(=O)c(C(=O)NC2CC2)c(O)c2ncc(Cc3ccc(F)cc3)cc21`: 3 nM, 9.3 nM and 193 nM.
The matching figures for `CN(C)C(=O)Cn1c(=O)c(C(=O)NCCO)c(O)c2ncc(Cc3ccc(F)cc3)cc21`: 5.7 nM, 17 nM and 35 nM.
`COCCNC(=O)c1c(O)c2ncc(Cc3ccc(F)cc3)cc2n(CC(=O)N(C)C)c1=O`: the IC50 in [1] turned out to be 4 nM; in series [2] it was 3.1 nM; in series [3] it was 9 nM; in series [4], 4.3 nM; in series [6], 13 nM. Further, the “Ratio IC50” value in [5] was found to be 2.9. Further, the concentration for an effect of 90% (IC90) in [6] amounted to 50 nM. In addition, the “inhibition (INH)” value in [7] is listed as “Not Active”. Moreover, the half-life in series [8] was 12.5 h; in series [9], 1.8 h; in series [10], 5.4 h. Also, the bioavailability was determined as 59% in [11], 7% in series [12] and 31% in [13]. Also, the values for the Ratio in [14] and in [16] were 0.5 and 0.6, respectively. Moreover, the clearance in series [17] was found to be 3.6 mL/min/kg; in series [18], 19.5 mL/min/kg; in series [19], 9.2 mL/min/kg.
Regarding `C[C@H](CO)NC(=O)c1c(O)c2ncc(Cc3ccc(F)cc3)cc2n(CC(=O)N(C)C)c1=O`, the concentration for half-maximal inhibition (IC50) came to 8.6 nM in series [1], 31 nM in series [2] and 40 nM in series [3].
As to `C[C@@H](CO)NC(=O)c1c(O)c2ncc(Cc3ccc(F)cc3)cc2n(CC(=O)N(C)C)c1=O`, the half-inhibitory concentration (IC50) in series [1] was 7.1 nM; in [2] it was 17 nM; in series [3] it was 24 nM.
The matching figures for `CN(C)C(=O)Cn1c(=O)c(C(=O)NC(C)(C)CO)c(O)c2ncc(Cc3ccc(F)cc3)cc21`: 6.5 nM, 3.6 nM and 82 nM.
The matching figures for `CN(C)C(=O)Cn1c(=O)c(C(=O)NC2(CO)CCCC2)c(O)c2ncc(Cc3ccc(F)cc3)cc21`: 23 nM, 7.2 nM and 24 nM.
On to `C[C@@H](O)CNC(=O)c1c(O)c2ncc(Cc3ccc(F)cc3)cc2n(CC(=O)N(C)C)c1=O`, for which the values for the IC50 in series [1], in series [2] and in series [3] were 9.2 nM, 11 nM and 70 nM, respectively.
The matching figures for `C[C@H](O)CNC(=O)c1c(O)c2ncc(Cc3ccc(F)cc3)cc2n(CC(=O)N(C)C)c1=O`: 4.1 nM, 7.1 nM and 15 nM.
The matching figures for `CN(C)C(=O)Cn1c(=O)c(C(=O)NCCN2CCOCC2)c(O)c2ncc(Cc3ccc(F)cc3)cc21`: 8.6 nM, 19 nM and 25 nM.
The like results for `COCCNC(=O)c1c(O)c2ncc(Cc3ccc(F)cc3)cc2n(CC(N)=O)c1=O` were, in that order, 7.7 nM, 4.3 nM and 22 nM.
In the case of `COCCNC(=O)c1c(O)c2ncc(Cc3ccc(F)cc3)cc2n(CC(=O)NC2CC2)c1=O`, the results for the half-maximal inhibitory concentration (IC50) in [1], in series [2] and in [3] were 7.3 nM, 3 nM and 18 nM, respectively.
The matching figures for `COCCNC(=O)c1c(O)c2ncc(Cc3ccc(F)cc3)cc2n(CC(=O)NC2CCC2)c1=O`: 8.5 nM, 3.3 nM and 39 nM.
The like results for `COCCNC(=O)c1c(O)c2ncc(Cc3ccc(F)cc3)cc2n(CC(=O)NC(C)C)c1=O` were, in that order, 6.2 nM, 3.2 nM and 57 nM.
The matching figures for `COCCNC(=O)c1c(O)c2ncc(Cc3ccc(F)cc3)cc2n(CC(=O)NCC(F)(F)F)c1=O`: 11 nM, 2.4 nM and 20 nM.
Consider `COCCNC(=O)c1c(O)c2ncc(Cc3ccc(F)cc3)cc2n(CC(=O)NCCN(C)C)c1=O`, for which the concentration for half-maximal inhibition (IC50) was 45 nM in series [1], 27 nM in [2] and 124 nM in series [3].
The matching figures for `COCCNC(=O)c1c(O)c2ncc(Cc3ccc(F)cc3)cc2n(CC(=O)N2CCCC2)c1=O`: 42 nM, 3.8 nM and 11 nM.
Regarding `COCCNC(=O)c1c(O)c2ncc(Cc3ccc(F)cc3)cc2n(CC(=O)N2CCCCC2)c1=O`, the half-maximal inhibitory concentration (IC50) in series [1] was found to be 4.7 nM; in [2], 3.6 nM; in series [3], 12 nM.
The like results for `COCCNC(=O)c1c(O)c2ncc(Cc3ccc(F)cc3)cc2n(CC(=O)N2CCOCC2)c1=O` were, in that order, 7.6 nM, 3.5 nM and 6.7 nM.
The like results for `COCCNC(=O)c1c(O)c2ncc(Cc3ccc(F)cc3)cc2n(CC(=O)N2CCN(C)CC2)c1=O` were, in that order, 28 nM, 5.3 nM and 13 nM.
`Cn1c(=O)c(C(=O)NCCO)c(O)c2ncc(Cc3ccc(F)cc3)cc21` [GSK-364735]: the IC50 in series [1] stood at 8.1 nM; in series [2], 1.7 nM.
